{"source": "paper PMC5063506", "about": "“A Novel Class of Small Molecule Agonists with Preference for Human over Mouse TLR4 Activation” (PLoS ONE, 2016)", "key": {"[1]": {"tested_on": "cotton rat PBMCs", "assay": "Cytokine gene expression in cotton rat PBMCs (QuantiGene Plex)", "type": "cell-based", "settings": "1 μg/ml, 24 h", "experimental": "(§1) Splenocytes were isolated from naïve BALB/c mice by dissociating spleens with a GentleMACS (Miltenyi) instrument, then filtration through […] screens. For other species, blood was obtained through venipuncture or cardiac puncture into heparinized tubes, then diluted 1:1 with PBS or HBSS and layered onto Ficoll-Histopaque (GE Healthcare) for blood from healthy human volunteers and cynomolgus macaques, Lympholyte-Mammal (Cedarlane Labs) for New Zealand white rabbits, Sprague-Dawley rats, Hartley guinea pigs, cotton rats, and ferrets, followed by standard density centrifugation techniques. […]\n(§2) PBMCs (human, cynomolgus macaque, guinea pig, ferret, rabbit, rat, and cotton rat) or splenocytes (mouse) were seeded onto 96-well flat bottom plates at 5 x 10^5 cells/well and stimulated with TLR4 agonists at 1 and 0.2 μg/ml for 24 h at 37°C. […] For human, cyno, mouse, and rat, cell-free SNs were analyzed via human, NHP, mouse, and rat MILLIPLEX kits. For GP, ferret, rabbit, and CR, cells were lysed by Millipore lysing buffer and snap frozen at -70 C until ready for analysis by Affymetrix QuantiGene 2.0 Plex kits. […] Signal was detected using a Bioplex 200 instrument (BioRad). […]\nFig 9 Species-specific activation of IL-6, TNF-α, and chemokine expression in primary cells. […] For human, cyno, mouse, and rat, SNs were analyzed via human, NHP, mouse, and rat MILLIPLEX kits. […]"}, "[2]": {"tested_on": "rat PBMCs", "assay": "Cytokine induction in rat PBMCs (rat MILLIPLEX)", "type": "cell-based, Sprague-Dawley rat", "settings": "1 and 0.2 μg/ml, 24 h", "experimental": "as §1, §2\nFig 8 Secreted cytokine profile of rat PBMCs stimulated by AZ618. […] SNs were analyzed via rat MILLIPLEX kits. Data are expressed as the means of 3 rats at the 1 μg/ml dose of TLR4 agonist and are representative of 2 studies. […]"}, "[3]": {"tested_on": "hTLR4/MD2 KIKO mice", "assay": "In vivo serum cytokines in hTLR4/MD2 KIKO mice", "set-up": "species or system mouse", "settings": "50 μg IP, serum at 2 h and 6 h", "description": "The humanized TLR4/MD-2 mice, described in detail in [15], express human TLR4 and human MD-2 from bacterial artificial chromosome transgenes that were bred to the mouse TLR4/MD-2 double-knockout (DKO) on a C57BL/6J background. Because the hMD-2 BAC transgene is integrated on the Y-chromosome, only male mice were used in the study. Generally, hMD-2 BAC+ males are bred to hTLR4 BAC+ females (both on DKO background) and male pups were screened for the presence of hTLR4 BAC. Double positives served as the fully humanized TLR4/MD-2 mice and hTLR4 BAC negative mice served as functional KO. Wild-type C57BL/6 mice were bred in parallel. All breeding was performed in an SPF facility at the University of Washington and all protocols were approved by the University of Washington IACUC. For in vivo cytokines, mice were injected intraperitoneally with 50 μg of either AZ618 or MPL in 0.2 ml PBS. Mice were bled from the retroorbital sinus 2 h after injection and terminal cardiocentesis was performed at 6 h for the second blood sample. Serum samples were analyzed via MILLIPLEX kits (EMD Millipore).\nC57BL/6 mice (6–12 per group) were immunized IP with 50 μg MPL or AZ618 and then were bled at 2 h via retro-orbital route and at 6 h via cardiac puncture. Serum was analyzed by multiplex Millipore kits for cytokine content. […]"}}, "data": [{"smiles": "Cc1cc(C)cc(N(C(=O)c2cc(-c3ccccc3)n(-c3ccccc3)n2)C(C(=O)NC2CCCC2)c2ccc(CC(=O)O)cc2)c1", "note": "(stereo not drawn) [AZ618, 2-(4-(2-(cyclopentylamino)-1-(N-(3,5-dimethylphenyl)-1,5-diphenyl-1H-pyrazole-3-carboxamido)-2-oxoethyl)phenyl)acetic acid]", "values": [{"measurement": "activation of cotton rat PBMCs", "setting": "[1]", "value": "able to activate"}, {"measurement": "response in rat PBMCs (cytokine secretion)", "setting": "[2]", "value": "comparable to that induced by MPL"}, {"measurement": "serum cytokine induction in hTLR4/MD2 KIKO mice", "setting": "[3]", "value": "induced a very similar pattern of cytokines"}]}]}
